This note sets out measurements from patent US5252581A, “Substituted aminothienopyridines, pharmaceutical composition and use” (Hoechst-Roussel Pharmaceuticals Inc., priority 1992, dated 1993).

For experiment [1], the target named is T1, NMDA associated strychnine-insensitive glycine modulatory site (Rattus norvegicus, UniProt P35439).
T1 construct: prepared from cortical tissue obtained from male Sprague Dawley rats; from tissue; host or cells: male Sprague Dawley rat cortex, crude synaptosomal homogenate
The experiment is described as follows: Enhancement of [^3 H]TCP Binding. Format: biochemical, rat (Sprague Dawley). As to conditions: for Emax: read-out: Enhancement of [^3 H]TCP Binding, % maximal glycine response.

Experiment [2] addresses T2, glycine binding site associated with the N-methyl-D-aspartate (NMDA) receptor complex (Rattus norvegicus, UniProt P35439).
T2 construct: Cortices of male Wistar rats are dissected over ice; from tissue; host or cells: male Wistar rat cortex, Triton-treated membranes
Kind of experiment: Displacement of [^3 H]Glycine Binding. The arrangement: species or system rat (Wistar). As for the experimental part:
Aliquots of 20 μl to the assay tube will give a final concentration of 10^-3 M.
4. […] Aliquots of 50 μl are added to yield a final assay concentration of 10 nM.
6. […] A stock solution of Triton-X 100, 10% can be prepared and stored in the refrigerator. Dilute 1.0 ml of Triton-X 100 to 10.0 ml with distilled water. On the day of the assay, the tissue homogenate (1:15 dilution) is preincubated with an aliquot of the 10% solution to give a final concentration of 0.04% (v/v).
Three cortices are pooled for one preparation.
1. Prepare assay tubes in triplicate.
2. Following the addition of the tissue, the tubes are incubated for 20 minutes in an ice-bath at 0°-4° C.
3. […] IC50 values for the competing compound are calculated by log-probit analysis of the data.

Experiment [3] concerns the target T3, serotonin (5HT) uptake (Rattus norvegicus, UniProt P31652).
T3 construct: from tissue; host or cells: male Wistar rat whole brain minus cerebella, crude synaptosomes (S1)
Kind of experiment: ^3 H-Serotonin Uptake in Rat Whole Brain Synaptosomes. It is filed as biochemical, rat (Wistar). As for the experimental part: A. Animals: Male CR Wistar rats (100-125 g).
3. […] This is used to dilute the specific activity of radiolabeled 5HT.
The dilution factor is 0.8.
5. For most assays, a 1 mM solution of the test compound is made up in suitable solvent and serially diluted such that the final concentration in the assay ranges from 2×10^-8 to 2×10^-5 M. Seven concentrations are used for each assay.
Male Wistar rats are decapitated and the brain rapidly removed. […] Homogenization should be done with 4-5 up and down strokes at medium speeds to minimize synaptosome lysis. […] The supernatant (S1) is decanted and is used for uptake experiments.
Tubes are incubated at 37° C. under a 95% O2 /5% CO2 atmosphere for 5 minutes. For each assay, 3 tubes are incubated with 20 μl of vehicle at 0° C. in an ice bath. After incubation all tubes are immediately centrifuged at 4000 g for 10 minutes. The supernatant fluid is aspirated and the pellets dissolved by adding 1 ml of solubilizer (Triton X-100+50% EtOH, 1:4 v/v). The tubes are vigorously vortexed, decanted into scintillation vials, and counted in 10 ml of Liquiscint scintillation counting cocktail. Active uptake is the difference between cpm at 37° C. and 0° C. The percent inhibition at each drug concentration is the mean of three determinations. IC50 values are derived from log-probit analysis.

In experiment [4] the target is T4, ^3 H-Norepinephrine reuptake (Rattus norvegicus, UniProt Q63380).
T4 construct: from tissue; host or cells: whole brain (WB), rat inferred
T4 sequence (Q63380 1-617): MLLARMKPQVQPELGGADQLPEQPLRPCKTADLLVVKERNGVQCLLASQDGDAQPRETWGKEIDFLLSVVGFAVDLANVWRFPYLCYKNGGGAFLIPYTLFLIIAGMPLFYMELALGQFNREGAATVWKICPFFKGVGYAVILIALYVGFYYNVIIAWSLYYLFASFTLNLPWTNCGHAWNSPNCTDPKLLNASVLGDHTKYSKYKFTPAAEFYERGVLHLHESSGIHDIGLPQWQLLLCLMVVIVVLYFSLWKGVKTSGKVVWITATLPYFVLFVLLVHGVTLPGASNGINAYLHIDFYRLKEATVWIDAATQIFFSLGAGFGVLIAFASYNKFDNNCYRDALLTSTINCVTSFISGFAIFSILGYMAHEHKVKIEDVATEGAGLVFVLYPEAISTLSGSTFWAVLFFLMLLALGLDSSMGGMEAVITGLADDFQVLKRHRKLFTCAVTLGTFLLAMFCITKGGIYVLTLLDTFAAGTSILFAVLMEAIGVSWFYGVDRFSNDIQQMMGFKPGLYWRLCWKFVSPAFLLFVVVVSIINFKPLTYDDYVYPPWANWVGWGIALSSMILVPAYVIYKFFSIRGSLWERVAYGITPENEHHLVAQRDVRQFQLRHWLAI
Kind of experiment: Inhibition of Biogenic Amine Reuptake, ^3 H-Norepinephrine (WB). Format: biochemical.

Experiment [5] concerns the target T5, 5HT3 Receptor (Homo sapiens, UniProt P46098).
T5 sequence (P46098 24-478): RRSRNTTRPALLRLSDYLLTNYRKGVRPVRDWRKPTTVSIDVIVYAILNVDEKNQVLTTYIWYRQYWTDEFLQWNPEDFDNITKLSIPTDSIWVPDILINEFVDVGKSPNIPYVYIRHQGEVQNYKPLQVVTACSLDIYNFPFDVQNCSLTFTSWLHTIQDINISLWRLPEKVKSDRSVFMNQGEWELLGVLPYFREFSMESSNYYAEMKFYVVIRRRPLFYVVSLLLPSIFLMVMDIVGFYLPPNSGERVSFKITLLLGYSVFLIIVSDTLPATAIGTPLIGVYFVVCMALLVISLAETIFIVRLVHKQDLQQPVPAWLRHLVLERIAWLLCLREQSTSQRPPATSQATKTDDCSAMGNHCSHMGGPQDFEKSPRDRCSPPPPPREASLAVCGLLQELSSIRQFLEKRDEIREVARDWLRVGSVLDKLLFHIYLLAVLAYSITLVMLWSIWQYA
Kind of experiment: 5HT3 Receptor Binding Assay.

The target in experiment [6] is T6, ^3 H-Dopamine reuptake (Rattus norvegicus, UniProt P23977).
T6 construct: str. = striatum; from tissue; host or cells: striatum, rat inferred
T6 sequence (P23977 whole entry): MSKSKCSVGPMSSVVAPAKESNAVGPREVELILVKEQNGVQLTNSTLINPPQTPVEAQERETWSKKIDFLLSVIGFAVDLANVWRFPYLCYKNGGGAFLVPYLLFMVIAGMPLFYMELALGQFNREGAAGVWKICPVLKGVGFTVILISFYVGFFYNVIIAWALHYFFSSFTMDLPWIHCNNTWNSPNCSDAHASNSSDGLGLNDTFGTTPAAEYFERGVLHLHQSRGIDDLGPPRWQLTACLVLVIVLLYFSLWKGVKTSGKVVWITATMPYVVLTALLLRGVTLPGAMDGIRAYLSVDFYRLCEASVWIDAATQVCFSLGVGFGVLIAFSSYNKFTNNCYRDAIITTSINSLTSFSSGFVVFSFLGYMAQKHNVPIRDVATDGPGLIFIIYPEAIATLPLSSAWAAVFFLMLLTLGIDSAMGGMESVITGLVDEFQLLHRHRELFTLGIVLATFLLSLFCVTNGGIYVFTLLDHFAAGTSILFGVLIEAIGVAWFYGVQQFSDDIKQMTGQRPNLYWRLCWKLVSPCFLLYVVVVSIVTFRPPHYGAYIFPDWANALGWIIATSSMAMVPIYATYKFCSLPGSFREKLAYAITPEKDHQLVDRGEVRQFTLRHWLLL
The experiment is described as follows: Inhibition of Biogenic Amine Reuptake, ^3 H-Dopamine (Str). It is filed as biochemical. As to conditions: str. = striatum.

Counter-ions that a name gives are not always drawn. Like-named read-outs stand apart in the source and are kept apart here. Some results are limits rather than exact numbers.

T3 sequence (P31652 whole entry): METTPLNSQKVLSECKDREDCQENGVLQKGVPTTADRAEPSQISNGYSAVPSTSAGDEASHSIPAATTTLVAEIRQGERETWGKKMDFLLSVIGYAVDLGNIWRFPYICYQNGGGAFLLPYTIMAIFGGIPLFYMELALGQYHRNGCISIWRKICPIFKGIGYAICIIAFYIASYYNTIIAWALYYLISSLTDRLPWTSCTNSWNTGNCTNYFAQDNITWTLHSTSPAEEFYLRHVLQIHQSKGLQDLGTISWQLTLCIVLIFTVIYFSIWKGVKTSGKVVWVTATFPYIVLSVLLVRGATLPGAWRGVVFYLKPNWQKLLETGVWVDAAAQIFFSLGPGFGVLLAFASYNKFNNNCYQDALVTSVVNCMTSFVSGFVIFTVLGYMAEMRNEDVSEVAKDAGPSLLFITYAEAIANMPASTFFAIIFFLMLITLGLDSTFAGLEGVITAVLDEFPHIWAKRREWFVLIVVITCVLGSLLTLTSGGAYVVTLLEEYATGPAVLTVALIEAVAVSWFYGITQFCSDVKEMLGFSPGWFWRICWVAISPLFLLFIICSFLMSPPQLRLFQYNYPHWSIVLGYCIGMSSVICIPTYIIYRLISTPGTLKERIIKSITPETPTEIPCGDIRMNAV

As usually defined, the EC50 is the concentration giving half of the maximal effect. Broadly, the IC50 is the concentration that inhibits the measured activity by half. High values mean lower potency, low ones higher potency. As for `NCC(=O)Nc1csc2ncccc12` [2-Amino-N-(thieno[2,3-b]pyridin-3-yl)acetamide], the EC50 in experiment [1] (rat cortical homogenate, 2.5 nM [^3 H]TCP, 10^-7 M L-glutamic acid) came to 14.4 µM. Also, the Emax in experiment [1] amounted to 39%. The compound also returned a 50% inhibitory concentration (IC50) in experiment [2] of 21.8 µM.
Take `CCCN(c1ccncc1)c1csc2ncccc12` [3-(Propyl-4-pyridinylamino)-thieno[2,3-b]-pyridine hydrochloride]: the figures for the IC50 in experiment [3], in experiment [4] and in experiment [5] were 0.071 µM, 0.71 µM and 4.6 µM, respectively.
In experiment [3] ([…]), `CCCN(c1ccncc1)c1csc2cnccc12` [3-(Propyl-4-pyridinylamino)thieno[2,3-c]pyridine] gave an IC50 of 0.54 µM.
As for `CN(C)CCCN1c2ccccc2CCc2ccc(Cl)cc21` [Clomipramine, reference compound], the IC50 is 31.5 µM in experiment [6] and more than 10 µM in experiment [5].
With `N[C@@H]1CONC1=O` [D-cycloserine, reference compound], the Emax in experiment [1] came to 80%.
Consider `NCC(=O)O` [Glycine, glycine, reference compound], for which the Emax in experiment [1] is 100%.
